In patent US20240190885A1, “KRAS PROTEIN DEGRADERS, PHARMACEUTICAL COMPOSITIONS THEREOF, AND THEIR THERAPEUTIC APPLICATIONS” (BioTheryX, Inc., priority 2021, published 2024):
pIC50: −log10 of the molar value.

What was measured:
Format in all cases: cell-based
[1] = target: T1, KRAS (Homo sapiens, UniProt P01116); assay: Protein degradation assay (western blot) in HEK293 cells; conditions: 6 h; for percent KRAS protein degradation at 3 µM: compound 3 μM; for KRAS Protein Degradation (%) 5 μM: compound 5 μM
T1 construct: Whole cell extracts were prepared using an immunoprecipitation (IP) lysis buffer; endogenous in cells; host or cells: HEK293
T1 sequence (P01116 1-188 isoform P01116-2): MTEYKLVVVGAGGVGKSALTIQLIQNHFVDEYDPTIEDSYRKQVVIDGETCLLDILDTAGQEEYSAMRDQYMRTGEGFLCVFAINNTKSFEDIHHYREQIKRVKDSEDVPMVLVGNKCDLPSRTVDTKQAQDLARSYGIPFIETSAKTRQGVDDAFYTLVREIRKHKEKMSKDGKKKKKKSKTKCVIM
Experimental: HEK293 cells were grown in RPMI 1640 media supplemented with 10% fetal bovine serum, streptomycin, and penicillin. The cells were plated in 24-well plates in the growth media. The cells were then treated with a compound at indicated concentrations for 6 h. Whole cell extracts were prepared using an immunoprecipitation (IP) lysis buffer. Briefly, the cells were washed once in PBS, and the cell pellets were resuspended in the IP lysis buffer and incubated for 15 min on ice. Cell debris was removed by centrifugation and the cleared whole cell lysates were transferred to new tubes for further analysis.
For a western blot analysis, the whole cell protein extracts were separated on 4-12% SDS-polyacrylamide gels, transferred to nitrocellulose, and probed with primary antibodies. The nitrocellulose is subsequently washed and probed with IRDYE® secondary antibodies. The signals were detected using an ODYSSEY® Imaging System. The antibodies used in the assay included anti-KRAS; […] mouse monoclonal antibody; IRDYE® 680RD goat anti-rabbit antibody; and IRDYE® 800CW goat anti-mouse antibody.

[2] = system: H358 (G12C) cells; assay: Cell viability assay (CELLTITER-GLO), H358 cells; conditions: Homo sapiens, NCI-H358, 72 h, 3 days, CELLTITER-GLO luminescence, read-out: Inhibition of Cancerous Cells IC50 H358 (G12C)
Experimental: (§1) H358 and SW48 cells were cultured in RPMI 1640 media supplemented with 10% fetal bovine serum, streptomycin, and penicillin. Lovo and SW480 cells were cultured in DMEM media supplemented with 10% fetal bovine serum, streptomycin, and penicillin. The cell lines were plated in their respective medium supplemented with 2.5% fetal bovine serum, streptomycin, and penicillin. All cell lines were plated in white walled 96-well plates at 2,000 cells/well or 384-well plates at 500 cells/well, except Lovo, which were plated at 4,000 or 1,000 cells/well, respectively. The cells were incubated in DMSO (control) or a compound for 3 days at 37° C. under 5% CO2. A CELLTITER-GLO® reagent (100 μL) was then added to each well. After a 10 min incubation with shaking, luminescence was measured using an ENVISION® multimode plate reader.

[3] = system: SW480 (G12V) cells; assay: Cell viability assay (CELLTITER-GLO), SW480 cells; conditions: Homo sapiens, 72 h, 3 days, CELLTITER-GLO luminescence, read-out: Inhibition of Cancerous Cells IC50 SW480 (G12V)
Experimental: as §1

[4] = system: SW48 (wt) cells; assay: Cell viability assay (CELLTITER-GLO), SW48 cells; conditions: Homo sapiens, 72 h, 3 days, CELLTITER-GLO luminescence, read-out: Inhibition of Cancerous Cells IC50 SW48 (wt)
Experimental: as §1

[5] = system: Lovo (G13D) cells; assay: Cell viability assay (CELLTITER-GLO), Lovo cells; conditions: Homo sapiens, 72 h, 3 days, CELLTITER-GLO luminescence, read-out: Inhibition of Cancerous Cells IC50 Lovo (G13D)
Experimental: as §1

| Compound | percent KRAS protein degradation at 3 µM [1] | KRAS Protein Degradation (%) 5 μM [1] | pIC50 [2] | pIC50 [3] | pIC50 [4] | pIC50 [5] |
| --- | --- | --- | --- | --- | --- | --- |
| Cc1nn2c(N3CCN(CCO)CC3)cc(-c3cccc(CCOCCNC(=O)CC45CC6CC(CC(C6)C4)C5)c3)nc2c1-c1ccccc1 [Compound A4, 2-(adamantan-1-yl)-N-(2-(3-(7-(4-(2-hydroxyethyl)piperazin-1-yl)-2-methyl-3-phenylpyrazolo[1,5-a]pyrimidin-5-yl)phenethoxy)ethyl)acetamide] | 20% | 51% | 5.80 | 5.92 | 5.89 | 6.06 |
| Cc1nn2c(N3CCN(CCO)CC3)cc(-c3cccc(CCOCCOC(=O)CC45CC6CC(CC(C6)C4)C5)c3)nc2c1-c1ccccc1 [Compound A3, 2-(3-(7-(4-(2-hydroxyethyl)piperazin-1-yl)-2-methyl-3-phenylpyrazolo[1,5-a]pyrimidin-5-yl)phenethoxy)ethyl 2-(adamantan-1-yl)acetate] | 0% | 0% | 5.48 | 5.92 | 5.85 | 6.01 |
| Cc1nn2c(N3CCN(CCO)CC3)cc(-c3ccccc3)nc2c1-c1ccccc1 [drawing 105, reference compound] |  |  | 5.48 | 5.85 | 5.57 | 5.59 |
| Cc1nn2c(N3CCN(CCO)CC3)cc(-c3cccc(CCCCCCCCCOC(=O)CC45CC6CC(CC(C6)C4)C5)c3)nc2c1-c1ccccc1 [Compound A6, 9-(3-(7-(4-(2-hydroxyethyl)piperazin-1-yl)-2-methyl-3-phenylpyrazolo[1,5-a]pyrimidin-5-yl)phenyl)nonyl 2-(adamantan-1-yl)acetate] | 10% | 28% | < 5.00 | < 5.00 | < 5.00 | < 5.00 |
| Cc1nn2c(N3CCN(CCO)CC3)cc(-c3cccc(CCNC(=O)CC45CC6CC(CC(C6)C4)C5)c3)nc2c1-c1ccccc1 [Compound A2, 2-(adamantan-1-yl)-N-(3-(7-(4-(2-hydroxyethyl)piperazin-1-yl)-2-methyl-3-phenylpyrazolo[1,5-a]pyrimidin-5-yl)phenethyl)acetamide] | 20% | 54% | 5.77 | 6.08 | 5.85 | 5.92 |
| Cc1nn2c(N3CCN(CCO)CC3)cc(-c3ccccc3)nc2c1-c1ccccc1 [drawing 106, reference compound] | 0% |  |  |  |  |  |
| Cc1nn2c(N3CCN(CCO)CC3)cc(-c3cccc(C#CCCCCCCCOC(=O)CC45CC6CC(CC(C6)C4)C5)c3)nc2c1-c1ccccc1 [Compound A5, 9-(3-(7-(4-(2-hydroxyethyl)piperazin-1-yl)-2-methyl-3-phenylpyrazolo[1,5-a]pyrimidin-5-yl)phenyl)non-8-yn-1-yl 2-(adamantan-1-yl)acetate] | 4% | 18% | < 5.00 | < 5.00 | < 5.00 | < 5.00 |
| Cc1nn2c(N3CCN(CCO)CC3)cc(-c3ccccc3)nc2c1-c1cccc(CCCCCCCCCNC(=O)CC23CC4CC(CC(C4)C2)C3)c1 [Compound C2, 2-(Adamantan-1-yl)-N-(9-(3-(7-(4-(2-hydroxyethyl)piperazin-1-yl)-2-methyl-5-phenylpyrazolo[1,5-a]pyrimidin-3-yl)phenyl)nonyl)acetamide] | 0% | 0% | < 5.00 | 5.66 | 5.35 | 5.47 |
| Cc1nn2c(N3CCN(CCO)CC3)cc(-c3cccc(CCCCCCCCCNC(=O)CC45CC6CC(CC(C6)C4)C5)c3)nc2c1-c1ccccc1 [Compound A1, 2-(adamantan-1-yl)-N-(9-(3-(7-(4-(2-hydroxyethyl)piperazin-1-yl)-2-methyl-3-phenylpyrazolo[1,5-a]pyrimidin-5-yl)phenyl)nonyl)acetamide] | 7% | 27% | 5.11 | < 5.00 | 5.30 | 5.35 |
